# Data as given in ChEMBL document CHEMBL1201862, “PubChem BioAssay data set” (2004).
#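 96-well plates; 48 h exposure; 5 concentrations. Endpoints by linear interpolation between flanking doses. Not reached: highest tested concentration assigned. GI50 = concentration required for 50% inhibition of growth.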 The source made the active and inactive calls. No stated cut-off is given here; in the data, active = GI50 up to about 1.1 µM and inactive = higher.
# Assays:
# Test in all cases: NCI anticancer screen, dose series, 48 h
# [1] = test system: ACHN
# [2] = test system: HCT-116
# [3] = test system: HOP-62
# [4] = test system: HOP-92
# [5] = test system: KM12
# [6] = test system: LOX IMVI
# [7] = test system: MDA-N
# [8] = test system: MOLT-4
# [9] = test system: Malme-3M
# [10] = test system: NCI-H23
# [11] = test system: NCI-H522
# [12] = test system: NCI/ADR-RES
# [13] = test system: PC-3
# [14] = test system: RXF 393
# [15] = test system: SK-MEL-5
# [16] = test system: SN12C
# [17] = test system: U-251
# [18] = test system: UACC-257
# [19] = test system: UACC-62
Structure (SMILES),GI50 [1],GI50 [2],GI50 [3],GI50 [4],GI50 [5],GI50 [6],GI50 [7],GI50 [8],GI50 [9],GI50 [10],GI50 [11],GI50 [12],GI50 [13],GI50 [14],GI50 [15],GI50 [16],GI50 [17],GI50 [18],GI50 [19]
CCC1=C(c2ccc(OC)cc2)CC[C@]2(CCNC2=O)[C@@H]1C,25.6 µM (inactive),23.6 µM (inactive),51.2 µM (inactive),40.7 µM (inactive),32 µM (inactive),25.1 µM (inactive),22.5 µM (inactive),15.8 µM (inactive),25.8 µM (inactive),37.4 µM (inactive),18.3 µM (inactive),31.2 µM (inactive),26.4 µM (inactive),55.2 µM (inactive),16.8 µM (inactive),37.8 µM (inactive),29.9 µM (inactive),23.7 µM (inactive),24.4 µM (inactive)
COc1ccc(OC)c(CCc2cc(OC)ccc2OC)c1,> 6.93 µM (inactive),0.59 µM (active),3.73 µM (inactive),> 10 µM (inactive),0.12 µM (active),0.676 µM (active),0.234 µM (active),1.91 µM (inactive),0.369 µM (active),3.18 µM (inactive),1.39 µM (inactive),0.885 µM (active),2.3 µM (inactive),2.58 µM (inactive),0.324 µM (active),6.98 µM (inactive),4.81 µM (inactive),5.38 µM (inactive),2.63 µM (inactive)
C[C@@H]1CCC([C@@H](C)[C@H]2CC[C@H]3[C@@H]4CC[C@H]5C[C@@H](O)CC[C@]5(C)[C@H]4CC[C@]23C)=NC1,14 µM (inactive),6.43 µM (inactive),13.4 µM (inactive),> 41.9 µM (inactive),5.06 µM (inactive),3.15 µM (inactive),9.53 µM (inactive),13 µM (inactive),18.1 µM (inactive),17.7 µM (inactive),3.96 µM (inactive),8.53 µM (inactive),10.1 µM (inactive),12.2 µM (inactive),7.64 µM (inactive),8.59 µM (inactive),8.63 µM (inactive),25.3 µM (inactive),15.9 µM (inactive)
COc1ccc2c(c1)CC[C@@H]1[C@@H]2CC[C@]2(C)/C(=N/OCCN3CCCCC3)CC[C@@H]12,8.81 µM (inactive),2.38 µM (inactive),6.25 µM (inactive),3.44 µM (inactive),3.61 µM (inactive),1.66 µM (inactive),2.33 µM (inactive),3.06 µM (inactive),2.25 µM (inactive),11.4 µM (inactive),5.27 µM (inactive),10 µM (inactive),4.74 µM (inactive),2.81 µM (inactive),2.65 µM (inactive),4.34 µM (inactive),8.09 µM (inactive),2.55 µM (inactive),2.06 µM (inactive)
CC(C)[Si]1(C(C)C)OCC2OC(N3C(=O)NC(=O)C[C@@H]3C(O)c3ccccc3)CC2O[Si](C(C)C)(C(C)C)O1 (stereo not given in full),7.11 µM (inactive),4.36 µM (inactive),11.9 µM (inactive),7.26 µM (inactive),2.4 µM (inactive),5.24 µM (inactive),4.3 µM (inactive),2.31 µM (inactive),5.41 µM (inactive),7.98 µM (inactive),3.18 µM (inactive),5.32 µM (inactive),4.3 µM (inactive),5.27 µM (inactive),11.3 µM (inactive),3.86 µM (inactive),3.24 µM (inactive),4.85 µM (inactive),8.91 µM (inactive)
O=C(C1OC1c1ccc([N+](=O)[O-])cc1)C12CC3CC(CC(C3)C1)C2 (stereo not given),18.5 µM (inactive),7.59 µM (inactive),24.3 µM (inactive),20.3 µM (inactive),14.7 µM (inactive),1.69 µM (inactive),11.6 µM (inactive),18.5 µM (inactive),16.9 µM (inactive),13.4 µM (inactive),29 µM (inactive),17.6 µM (inactive),14.6 µM (inactive),22.5 µM (inactive),15.6 µM (inactive),13.1 µM (inactive),11.9 µM (inactive),14.7 µM (inactive),12.1 µM (inactive)
CC1CC(C)[C@H](O)C([C@H](O)CC2CC(=O)N(C)C(=O)C2)C1 (stereo not given in full),> 100 µM (inactive),> 100 µM (inactive),> 100 µM (inactive),32.3 µM (inactive),> 100 µM (inactive),> 100 µM (inactive),> 100 µM (inactive),> 100 µM (inactive),> 100 µM (inactive),> 100 µM (inactive),57 µM (inactive),> 100 µM (inactive),> 100 µM (inactive),> 100 µM (inactive),> 100 µM (inactive),> 100 µM (inactive),> 100 µM (inactive),> 100 µM (inactive),> 100 µM (inactive)
COc1cc(NP(=O)(Oc2ccccc2)Oc2ccccc2)ccc1Nc1c2ccccc2nc2c1[nH]c1ccccc12,0.221 µM (active),3.21 µM (inactive),0.359 µM (active),0.933 µM (active),2.62 µM (inactive),0.598 µM (active),2.77 µM (inactive),0.0147 µM (active),4.46 µM (inactive),0.585 µM (active),1.6 µM (inactive),1.65 µM (inactive),4.41 µM (inactive),2.46 µM (inactive),1.22 µM (inactive),0.327 µM (active),0.524 µM (active),7.71 µM (inactive),2.4 µM (inactive)
Cn1cnc2c1c(=O)n(CCNCCO)c(=O)n2C,> 100 µM (inactive),> 100 µM (inactive),> 100 µM (inactive),> 100 µM (inactive),> 100 µM (inactive),> 100 µM (inactive),> 100 µM (inactive),> 100 µM (inactive),> 100 µM (inactive),> 100 µM (inactive),> 100 µM (inactive),> 100 µM (inactive),> 100 µM (inactive),> 100 µM (inactive),> 100 µM (inactive),> 100 µM (inactive),> 100 µM (inactive),> 100 µM (inactive),> 100 µM (inactive)
CC(Oc1ccccc1)C(=O)NNC(=O)OC(C)(C)C (stereo not given),> 100 µM (inactive),> 100 µM (inactive),> 100 µM (inactive),> 100 µM (inactive),> 100 µM (inactive),> 100 µM (inactive),> 100 µM (inactive),> 100 µM (inactive),> 100 µM (inactive),> 100 µM (inactive),> 100 µM (inactive),> 100 µM (inactive),> 100 µM (inactive),> 100 µM (inactive),> 100 µM (inactive),> 100 µM (inactive),> 100 µM (inactive),> 100 µM (inactive),> 100 µM (inactive)
